In patent US20140296146A1, “Thermostable Inhibitors of Activation of the Blood Clotting System Through Contact with Foreign Surfaces” (Synapse B.V., priority 2011, published 2014):
One block for each molecule: values may come before it.

What was measured:
[1] = target: T1, h-FXIIa (Homo sapiens, UniProt P00748); assay: Stability of CTI, PTI and TICA at RT and at 95° C., read as inhibition of h-FXIIa; format: physicochemical; settings: for Residual activity / Calculated total I / Activity of FXIIa / Free FXIIa: inhibitor exposed 60 minutes to 95° C.; for Calculated total I / Activity of FXIIa / Free FXIIa: added CTI 8.1 nM, TICA1 306 nM; for Activity of FXIIa / Free FXIIa: total FXIIa 9.33 nM
T1 construct: purchased Enzyme Research Laboratories FXIIa 1212A
T1 sequence (P00748 373-615 limits assumed): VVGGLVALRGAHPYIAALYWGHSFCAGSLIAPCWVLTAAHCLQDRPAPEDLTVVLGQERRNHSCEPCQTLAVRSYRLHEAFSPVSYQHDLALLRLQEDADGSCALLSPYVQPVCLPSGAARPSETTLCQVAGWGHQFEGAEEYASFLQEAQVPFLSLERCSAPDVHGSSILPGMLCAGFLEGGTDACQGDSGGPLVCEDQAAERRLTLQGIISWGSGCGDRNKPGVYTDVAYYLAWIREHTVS
T1 sequence (P00748 20-372 partner limits assumed): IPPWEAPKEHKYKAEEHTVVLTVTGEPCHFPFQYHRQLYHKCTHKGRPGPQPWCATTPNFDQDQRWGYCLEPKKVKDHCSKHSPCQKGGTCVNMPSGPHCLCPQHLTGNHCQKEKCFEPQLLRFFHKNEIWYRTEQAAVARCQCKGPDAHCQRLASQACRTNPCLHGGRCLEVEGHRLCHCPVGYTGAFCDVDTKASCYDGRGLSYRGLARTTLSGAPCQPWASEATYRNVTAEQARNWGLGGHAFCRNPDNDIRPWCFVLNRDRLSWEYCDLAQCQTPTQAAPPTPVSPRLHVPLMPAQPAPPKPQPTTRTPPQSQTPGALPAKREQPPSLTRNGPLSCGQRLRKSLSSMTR
Protocol: Materials • S2302 From Chromogenic, lot # N0398718 SEQ0860, exp. date 2012-07. Water added on 7 Oct. […] On 3 Aug. […] Product code FXIIa 1212A, lot #FXIIa 2520PL. Bottle with 0.5 mg was reconstituted with 370 μl pure water. […] Buffer 4 mM NaAc, 150 mM NaCl (pH 5.3). Preparation was divided into 20 μl amounts and frozen at −80° C. • Hepes735 140 mM NaCl, 20 mM Hepes, 0.02% NaN3 (pH 7.35). • BSA5 Hepes735+5 mg/ml BSA. • CTI Prepared on 17 Dec. 2004, 0.141 mg/ml, i.e. 0.141/12028=11.7*10^−6 M (11.7 μM). One portion was thawed and divided into 3 parts. […]
Stock FXIIa was diluted 700× in BSA5. The inhibitor was diluted in BSA5 as indicated. Wells contained 70 μl diluted FXIIa (5 nM final), 70 μl inhibitor and 20 μl S2302 (475 or 462.5 μM final). The reaction was started after 5 min heating on the heating plate with S2302. Filters 405 nm and 490 nm reference. Found ΔmA/min was multiplied by 2.14 to get the figure for a 1 cm path.
The residual activity (V) was fitted against the inhibitor concentration with equation:
V=(E+(sqrt(Ê2+2*E*(Ki−I)+Î2+2*I*Ki+Kî2)−E−I−Ki)/2)*kcat*S/(Km+S)
in which E=[FXIIa], Ki is the dissociation constant, I=[Inhibitor], kcat and Km are Michaelis constants and S=[S2302].
To calculate the concentration of I the equation I=x·(x−E−Ki)/(x−E) was used. In this equation is I the calculated inhibitor concentration, x=the residual activity of FXIIa (free FXIIa), E the total FXIIa concentration (=9.33 nM), and Ki the dissociation or inhibitor constant.

[2] = tested on: contact activation; assay: Thrombin generation (CAT) in platelet poor plasma contact activated with kaolin; format: biochemical, human; settings: for 4 × lag-time (ng/ml) / 4 × lag-time (μM): concentration that prolongs clotting time of kaolin contact activated plasma four times
Protocol: Thrombin generation was carried out according to WO2003/093831.
Following a double centrifugation at 2500×g for 15 min at room temperature, platelet poor plasma (PPP) was collected from the upper half volume of plasma supernatant, quick frozen and stored at −80° C. The absence of platelet and leucocyte in PPP was checked with an ADVIA 120 counter (Bayer Diagnostics, NY, USA).
Recombinant human tissue factor Innovin® was obtained from Dade Behring (Marburg, Germany) and used at a final concentration of 0.5 pM in PRP and 1 or 5 pM in PPP samples. The phospholipid vesicles used at a final concentration of […] were obtained from Avanti Polar Lipids (Alabaster, Ala., USA) and consisted of 20 mol % phosphatidylserine (PS), 20 mol % phosphatidylethanolamine (PE) and 60 mol % phosphatidylcholine (PC) and were prepared by extrusion method (9,10). Kaolin light (hydrated aluminium silicate) was obtained from Baker Harrison ltd, (Ilford, UK).
Hepes-buffered saline contained 20 mM Hepes (Sigma Aldrich, l'Ile d'Abeau Chesnes, France), 140 mM NaCl and 5 mg/mL bovine serum albumin (BSA) (Euromedex, Souffelweyersheim, France), pH 7.35. This buffer was stored at −20° C. until use. A fresh mixture of fluorogenic substrate and CaCl2 was prepared before each experiment. Fluorogenic substrate, Z-Gly-Gly-Arg-AMC, was obtained from Bachem (Bubendorf, Switzerland). The mixture of fluorogenic substrate 2.5 mM and CaCl2 0.1 M was prepared using buffer containing Hepes 20 mM and 60 mg/mL BSA, pH 7.35. The Calibrator with the activity of 600 nM human thrombin was obtained from Thrombinoscope BV (Maastricht, The Netherlands). Transparent, round bottom Greiner microtiter plates (Greiner ref 65204, Poitiers, France) were used.
Thrombin generation was measured using Calibrated Automated Thrombography (CAT) according to the methodology of WO2003/093831 and a 96-well plate fluorometer (Fluoroscan Ascent Reader, Thermolab systems OY, Helsinki, Finland) equipped with a 390/460 nm filter set. Briefly, 80 μL of plasma is dispensed into the wells of round-bottom 96 well-microtiter plates. 20 μL of a mixture containing tissue factor and phospholipids is added to the PPP sample; alternatively, in order to obtain contact activation, the citrated plasma is preincubated for at least 10 min with 1 mg/ml of Kaolin light. The starting reagent (20 μL per well) contains fluorogenic substrate and CaCl2. […] The most important parameters that can be derived from CAT are lag time, endogenous thrombin potential corresponding to the area under the CAT curve, peak height of thrombin and time to peak.

[3] = Retention of biological activity at room temperature and in boiling water; format: physicochemical; settings: for biological activity after heating: 0.1 mM solution in closed ampoule in boiling water for 60 min
Protocol: (Example 7) This means that, unlike CTI, it can be added to citrate tubes that can be sterilized and used under clinical conditions. About 0.10 mg of TICA1 would be required per vacuum tube meant to take 10 ml of blood.

[4] = contact activation of PPP by kaolin
[5] = Kaolin, CTI 0.72 μM (8.64 μg/ml)

Molecule: CC[C@H](C)[C@@H]1NC(=O)[C@H](CCCNC(=N)N)NC(=O)[C@@H]2CCCN2C(=O)[C@@H](NC(=O)[C@@H](NC(=O)[C@@H](N)CCCNC(=N)N)C(C)C)CSSC[C@@H]2NC(=O)[C@H](CCC(=O)O)NC(=O)[C@H](C)NC(=O)[C@H](CC(C)C)NC(=O)[C@@H]3CSSC[C@@H](C(=O)NCC(=O)O)NC(=O)[C@H](Cc4ccc(O)cc4)NC(=O)CNC(=O)[C@H](Cc4c[nH]cn4)NC(=O)[C@H](CCC(=O)O)NC(=O)[C@H](CC(C)C)NC(=O)[C@H](CSSC[C@H](NC(=O)[C@H](CCCCN)NC(=O)[C@H](CCSC)NC(=O)[C@H](CC(C)C)NC1=O)C(=O)N[C@@H](CCCCN)C(=O)N[C@@H](CCCCN)C(=O)N[C@@H](CC(=O)O)C(=O)N[C@@H](CO)C(=O)N[C@@H](CC(=O)O)C(=O)N3)NC(=O)[C@H](C(C)C)NC2=O [TICA1]
Ki ([1]; (Ki) (nM), inhibitor 30 min 95° C., h-FXIIa 5.01 nM): 24 nM
Res. Act. (%) ([1]; inhibitor 30 min 95° C.): 94%
Res. Act. (%) ([1]; inhibitor at RT during 72 hrs): 102%
Residual activity [1]: 81.7%
Calculated total I [1]: 250 nM
Activity of FXIIa [1]: 33.5 ± 1.78 mA/min
Free FXIIa [1]: 3.93 nM
Res. Act. (%) ([1]; inhibitor kept at −80° C.): 100%
effect on lag time of thrombin generation triggered by contact activation ([2]; FIG. 1): prolong the lag time
inhibition of contact activation of PPP ([2]; PPP incubated with kaolin, 0.94 to 4.6 μM): dose-dependent inhibition
4 × lag-time (ng/ml) ([2]; After heating): 7.5 ng/mL
4 × lag-time (μM) ([2]; After heating): 2.3 µM
4 × lag-time (ng/ml) ([2]; Before heating): 7.8 ng/mL
4 × lag-time (μM) ([2]; Before heating): 2.4 µM
potency compared with CTI on a molar basis [2, 4]: ~2.5 times less potent
potency compared with CTI on a weight basis [2, 4]: equipotent
biological activity after heating [3]: does not affect its biological activity
stability at room temperature ([3]; left for weeks at room temperature): without loosing activity

Activity of FXIIa [1]: 66.3 ± 1.32 mA/min
Free FXIIa [1]: 7.77 nM
B1: Corn trypsin inhibitor (other, UniProt P01088 29-138, looked up)
chain: SAGTSCVPGWAIPHNPLPSCRWYVTSRTCGIGPRLPWPELKRRCCRELADIPAYCRCTALSILMDGAIPPGPDAQLEGRLEDLPGCPREVQRGFAATLVTEAECNLATIS
notes: also called CTI
Residual activity [1]: 29.3%
Calculated total I [1]: 2.37 nM
ETP [2, 5]: 1116
Lag-time [2, 5]: 18.62
Peak [2, 5]: 385
ttPeak [2, 5]: 20.06
biological activity after heating [3]: significantly inactivated
